A short description of the first series: in vitro. As to conditions: human, hela cells, % viability.
One may read the viability as a read-out of living cells in per cent, often relative to untreated cells. As to `NC(=O)C1(Cc2ccccc2-c2ccccc2)CCN(C(=O)Cc2ccccc2)CC1` [CBK285909], the viability at 28.5 h, 10 µM turned out to be 95.9%.
For the compound `CCOC1C(OCC)N(S(=O)(=O)c2ccc(C)cc2)CCN1S(=O)(=O)c1ccc(C)cc1` (stereo not drawn) [CBK261832], the viability at 28.5 h, 10 µM stood at 116%.
Still for that read-out and setting: in the case of `Nc1nc2sc3c(c2cc1C(=O)N1CCOCC1)CCCC3` [CBK022399] it was 96.1%.
As for `CCn1cc(C(=O)N2CCN(Cc3ccco3)C[C@@H]2C(C)C)cn1` [CBK284307], the viability at 28.5 h, 10 µM was found to be 97.7%.
The same measure, in the same setting: in the case of `CC(C)NC(=O)c1sc2ccccc2c1C1CCN(C(=O)CCc2ccccc2)C1` (stereo not drawn) [CBK285874] it was 99.2%; in that of `O=C1NC[C@@H](CCC(=O)N2CCCC2)N2C[C@@H](NC(=S)Nc3ccccc3)C[C@@H]12` [CBK289004], 113%; in that of `COc1cccc(CN2CCN(C(=O)c3cccc(F)c3)CC2)c1OC` [CBK074527], 85.1%.
In the case of `CC(CCCC(C)(C)O)Nc1cncc(-c2ccccc2CO)n1` (stereo not drawn) [CBK065529], the viability at 28.5 h, 10 µM was determined as 96.3%.
Still for that read-out and setting: in the case of `Cc1ccc2nc(N3CCCC(O)C3)c(CN3CCN(C)CC3)cc2c1` (stereo not drawn) [CBK307710] it was 100%; in that of `CC(=O)c1ccc(S(=O)(=O)N2CCCCC2CNC(=O)c2ccco2)cc1` (stereo not drawn) [CBK051472], 103%.
The same measure, in the same setting: the value for `O=c1[nH]c2ccc(Cl)cc2c(-c2ccccc2)c1N1CCN(Cc2ccc3c(c2)OCO3)CC1` [CBK265776] was 92.3%.
On the same count and under the same terms, the value for `COC(=O)c1ccc(NC(=O)c2ccc(-n3cccn3)cc2)cc1` [CBK269486] was 90.7%; that for `O=C(O)c1ccc(NC(=O)c2ccccc2F)c(NC(=O)c2ccccc2F)c1` [CBK275363] was 101%; that for `O=C(NC1CC1)[C@H]1CN2CCC1C[C@@H]2Cn1cc(-c2cccc(O)c2)nn1` (stereo partly drawn) [CBK288738] was 79.8%.
Regarding `CCc1cc(CNC(=O)C(c2ccc(Cl)cc2)N(C)C)on1` (stereo not drawn) [CBK281670], the viability at 28.5 h, 10 µM came to 96.6%.
`Cc1ccn2c(NS(=O)(=O)c3ccc(CCC(=O)O)cc3)c(-c3cccs3)nc2c1` [CBK297480]: the viability at 28.5 h, 10 µM turned out to be 110%.
The same measure, in the same setting: in the case of `Cc1ccc(-c2cc(C(=O)NCc3ccc(F)cc3Cl)n[nH]2)cc1` [CBK288102] it was 85.6%; in that of `CCN(CC(=O)O)S(=O)(=O)c1cc(C)ccc1OC` [CBK268694], 98.7%; in that of `N#Cc1c(-c2ccc(Cl)cc2)c[nH]c1N` [CBK019323], 104%.
Same read-out and setting: in the case of `Cc1ccc2c(c1)C(C[C@H]1CN(C(=O)C3CCCC3)CC[C@H]1CC(=O)O)=NCC2` [CBK289163] it was 88.5%; in that of `COc1ccc(C(=O)Nc2c(OC)cc(F)cc2OC2CCNCC2)cc1` [CBK050294T], 97%; in that of `COc1ccc(Oc2ncnc3c2[nH]c2ccccc23)cc1` [CBK291254], 88.9%.
Take `CS(=O)(=O)N1CCCC(C(=O)Nc2cccc3cccnc23)C1` (stereo not drawn) [CBK299783]: the viability at 28.5 h, 10 µM stood at 90.8%.
In the case of `O=C(NCc1cccnc1)c1ccc(CSc2ccccc2)cc1` [CBK300544], the viability at 28.5 h, 10 µM is 101%.
For `COc1ccc(-c2cc(C(=O)Nc3ccc(F)c(Cl)c3)cnc2-c2cccc(C)c2)cc1` [CBK037488], the viability at 28.5 h, 10 µM stood at 93.3%.
On to `Cc1cc(OCC2CCN(C(=O)OC(C)(C)C)CC2)ccc1Br` [CBK175091], for which the viability at 28.5 h, 10 µM was found to be 108%.
On the same count and under the same terms, the value for `Cc1c(NC(=O)c2ccc([N+](=O)[O-])o2)cccc1-c1nc2ccccc2s1` [CBK263051] was 85.6%.
On the same count and under the same terms, in the case of `Oc1cccc(-c2nccnc2NCCc2ccccn2)c1` [CBK037388] it was 104%; in that of `Cc1cccn2c(=O)c(/C=C3\SC(=S)N(C(C)c4ccccc4)C3=O)c(NCCCn3ccnc3)nc12` (stereo not drawn) [CBK263836], 92.9%.

Staying with this series, now noted: human, hela cells, % viability, bulk resorufin, single well.
As to `O=C1CCCc2c1c1cccc(C(=O)O)c1n2Cc1ccccc1` [CBK002365], the viability at 28.5 h, 10 µM was 95.6%.

Source of the values: PMC12040169 (PLOS Biology, 2025).
